Results from patent US20240199546A1, “INHIBITORS OF SOLUTE CARRIER FAMILY 6A MEMBER 19 (SLC6A19) AND METHODS OF USE THEREOF” (Maze Therapeutics, Inc., priority 2022, published 2024).

Columns and labels:
human SLC6A19 and TMEM27 [1] = target: T1, human SLC6A19 and TMEM27 (Homo sapiens, UniProt Q695T7); experiment: Radiolabelled (3H) leucine uptake in CHO cells with doxycycline-inducible expression of human SLC6A19 and TMEM27 (Example B-1); assay type: cell-based; settings: CHO cells with doxycycline-inducible expression of human SLC6A19 and TMEM27, read-out: SLC6A19_Radioligand Uptake Assay IC50
T1 construct: expressed in transfected cells
T1 sequence (Q695T7 1-634): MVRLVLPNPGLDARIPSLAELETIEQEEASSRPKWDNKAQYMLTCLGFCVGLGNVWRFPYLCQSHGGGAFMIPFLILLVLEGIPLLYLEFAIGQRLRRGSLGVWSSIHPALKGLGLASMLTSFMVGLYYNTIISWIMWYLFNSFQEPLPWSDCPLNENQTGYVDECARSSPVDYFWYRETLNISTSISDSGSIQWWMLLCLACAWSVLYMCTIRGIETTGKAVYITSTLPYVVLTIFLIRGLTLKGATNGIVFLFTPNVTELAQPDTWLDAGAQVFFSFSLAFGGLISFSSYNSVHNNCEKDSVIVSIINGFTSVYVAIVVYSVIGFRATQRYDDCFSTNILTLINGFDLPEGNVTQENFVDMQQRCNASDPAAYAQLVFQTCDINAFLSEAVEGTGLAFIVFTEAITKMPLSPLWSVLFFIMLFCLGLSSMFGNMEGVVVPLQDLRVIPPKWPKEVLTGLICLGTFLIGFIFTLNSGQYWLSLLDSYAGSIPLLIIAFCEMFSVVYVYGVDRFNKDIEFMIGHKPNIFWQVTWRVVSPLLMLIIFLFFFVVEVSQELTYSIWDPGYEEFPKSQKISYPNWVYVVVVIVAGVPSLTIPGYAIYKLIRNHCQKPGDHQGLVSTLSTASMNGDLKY
T1 sequence (Q9HBJ8 15-222 partner): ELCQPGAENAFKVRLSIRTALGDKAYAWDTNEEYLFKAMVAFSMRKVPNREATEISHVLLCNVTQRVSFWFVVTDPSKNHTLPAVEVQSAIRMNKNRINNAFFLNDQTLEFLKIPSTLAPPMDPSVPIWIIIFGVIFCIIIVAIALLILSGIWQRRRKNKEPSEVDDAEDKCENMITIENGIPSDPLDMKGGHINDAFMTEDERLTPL
Summary of the method: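 CHO cells were induced with doxycycline for 18 h at 37 °C, washed in HBSS, then exposed to compounds for 1 h: 8-point, 3-fold dilutions in duplicate, 0.5% DMSO final. Uptake measured by scintillation counting after 2 h shaking. Activity normalized with positive control as 0% and DMSO as 100%.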

human SLC6A19 and TMEM27 [2] = target: T1, human SLC6A19 and TMEM27; experiment: 13C6,15N-isoleucine uptake in CHO cells with doxycycline-inducible expression of human SLC6A19 and TMEM27, RapidFire mass spectrometry (Example B-2); assay type: cell-based; settings: read-out: SLC6A19_RapidFire Uptake Assay IC50
Summary of the method: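 CHO cells induced overnight with doxycycline to express human SLC6A19 plus TMEM27; 20 min preincubation with compound (10-point 2-fold series, duplicate) at 37 °C in HEPES buffer pH 7.2, then 20 min with 13C6,15N-isoleucine. Intracellular label quantified by RapidFire MS against 13C-leucine standard; positive control defined 100% inhibition.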

Row | IC50 (human SLC6A19 and TMEM27 [1]) | IC50 (human SLC6A19 and TMEM27 [2]) | SMILES
1 | 955 nM | 524 nM | CC1(C(=O)NCc2cc3cc(C(F)F)c(OCc4cscn4)cc3[nH]2)CC1 [Compound 645, N-((5-(difluoromethyl)-6-(thiazol-4-ylmethoxy)-1H-indol-2-yl)methyl)-1-methylcyclopropane-1-carboxamide]
2 | 156 nM | 80.8 nM | CC(=O)NCc1cc2cc(Cl)c(OCc3cccc(F)n3)cc2[nH]1 [Compound 225, N-((5-chloro-6-((6-fluoropyridin-2-yl)methoxy)-1H-indol-2-yl)methyl)acetamide]
3 | 312 nM | 1300 nM | CC(C)C(=O)NCc1cc2cc(F)c(OCc3cocn3)cc2[nH]1 [Compound 501, N-((5-fluoro-6-(oxazol-4-ylmethoxy)-1H-indol-2-yl)methyl)isobutyramide]
4 | 119 nM | 51 nM | CC1(C(=O)NCc2cc3cc(F)c(OCc4cscn4)cc3[nH]2)CC1 [Compound 8, N-((5-fluoro-6-(thiazol-4-ylmethoxy)-1H-indol-2-yl)methyl)-1-methylcyclopropane-1-carboxamide]
5 | 97 nM | 171 nM | CCC(=O)NCc1cc2cc(F)c(OCc3cscn3)cc2[nH]1 [Compound 126, N-((5-fluoro-6-(thiazol-4-ylmethoxy)-1H-indol-2-yl)methyl)propionamide]
6 | 137 nM | 68.6 nM | O=C(NCc1cc2cc(F)c(OCc3cscn3)cc2[nH]1)C1CCC1 [Compound 430, N-((5-fluoro-6-(thiazol-4-ylmethoxy)-1H-indol-2-yl)methyl)cyclobutanecarboxamide]
7 | 208 nM | 239 nM | CC1(C(=O)NCc2cc3cc(F)c(NCc4cscn4)cc3[nH]2)CC1 [Compound 523, N-((5-fluoro-6-((thiazol-4-ylmethyl)amino)-1H-indol-2-yl)methyl)-1-methylcyclopropane-1-carboxamide]
8 | 60 nM | 45 nM | CC1(C(=O)NCc2cc3c(F)cc(OCc4cscn4)cc3[nH]2)CC1 [Compound 29, N-((4-fluoro-6-(thiazol-4-ylmethoxy)-1H-indol-2-yl)methyl)-1-methylcyclopropane-1-carboxamide]

Further lines, the compound ahead of its results:

Row | SMILES | IC50 (human SLC6A19 and TMEM27 [1]) | IC50 (human SLC6A19 and TMEM27 [2])
9 | CC1(C(=O)NCc2cc3cc(Cl)c(OCc4csc(Cl)c4)cc3[nH]2)CC1 [Compound 324, N-((5-chloro-6-((5-chlorothiophen-3-yl)methoxy)-1H-indol-2-yl)methyl)-1-methylcyclopropane-1-carboxamide] | 1120 nM | 476 nM
10 | COc1cc2cc(CNC(=O)C3(C)CC3)[nH]c2cc1CCc1ccon1 [Compound 630, N-((6-(2-(isoxazol-3-yl)ethyl)-5-methoxy-1H-indol-2-yl)methyl)-1-methylcyclopropane-1-carboxamide] | 156 nM | 113 nM
11 | O=C(NCc1cc2cc(Cl)c(OCc3cccc(F)n3)cc2[nH]1)N1CCCC1 [Compound 425, N-((5-chloro-6-((6-fluoropyridin-2-yl)methoxy)-1H-indol-2-yl)methyl)pyrrolidine-1-carboxamide] | 315 nM | 115 nM
12 | CC1(C(=O)NCc2cc3cc(Cl)c(OCC4CCC4)cc3[nH]2)CC1 [Compound 634, N-((5-chloro-6-(cyclobutylmethoxy)-1H-indol-2-y1)methyl)-1-methylcyclopropane-1-carboxamide] | 404 nM | 168 nM
13 | CC1(C(=O)NCc2cc3ccc(CCc4cscn4)cc3[nH]2)CC1 [Compound 76, 1-methyl-N-((6-(2-(thiazol-4-yl)ethyl)-1H-indol-2-yl)methyl)cyclopropane-1-carboxamide] | 100 nM | 34 nM
14 | CC1(C(=O)NCc2cc3cc(Cl)c(OCc4ccno4)cc3[nH]2)CC1 [Compound 326, N-((5-chloro-6-(isoxazol-5-ylmethoxy)-1H-indol-2-yl)methyl)-1-methylcyclopropane-1-carboxamide] | 196 nM | 125 nM
15 | Cc1cc(COc2cc3[nH]c(CNC(=O)N4CCC4)cc3cc2Cl)on1 [Compound 404, N-((5-chloro-6-((3-methylisoxazol-5-yl)methoxy)-1H-indol-2-yl)methyl)azetidine-1-carboxamide] | 268 nM | 147 nM
16 | CC1(C(=O)NCc2cc3cc(Cl)c(OCc4ccns4)cc3[nH]2)CC1 [Compound 322, N-((5-chloro-6-(isothiazol-5-ylmethoxy)-1H-indol-2-yl)methyl)-1-methylcyclopropane-1-carboxamide] | 275 nM | 138 nM
17 | CC1(C(=O)NCc2cc3cc(Cl)c(OCc4ccc(F)cn4)cc3[nH]2)CC1 [Compound 28, N-((5-chloro-6-((5-fluoropyridin-2-yl)methoxy)-1H-indol-2-yl)methyl)-1-methylcyclopropane-1-carboxamide] | 170 nM | 79 nM
18 | CC1(C(=O)NCc2cc3cc(F)c(CCc4ccon4)cc3[nH]2)CC1 [Compound 592, N-((5-fluoro-6-(2-(isoxazol-3-yl)ethyl)-1H-indol-2-yl)methyl)-1-methylcyclopropane-1-carboxamide] | 163 nM | 93.1 nM
19 | Cc1cc(COc2cc3[nH]c(CNC(=O)C4(C)CC4)cc3cc2F)on1 [Compound 12, N-((5-fluoro-6-((3-methylisoxazol-5-yl)methoxy)-1H-indol-2-yl)methyl)-1-methylcyclopropane-1-carboxamide] | 79 nM | 144 nM
20 | Cc1cc(COc2cc3[nH]c(CNC(=O)C4(C)CC4)cc3cc2C)no1 [Compound 14, 1-methyl-N-((5-methyl-6-((5-methylisoxazol-3-yl)methoxy)-1H-indol-2-yl)methyl)cyclopropane-1-carboxamide] | 111 nM | 120 nM
21 | O=C(NCc1cc2ccc(OCc3ccon3)cc2[nH]1)N1CCCCC1 [Compound 123, N-((6-(isoxazol-3-ylmethoxy)-1H-indol-2-yl)methyl)piperidine-1-carboxamide] | 340 nM | 576 nM
22 | CC1(C(=O)NCc2cc3cc(C4CC4)c(OCc4ccon4)cc3[nH]2)CC1 [Compound 342, N-((5-cyclopropyl-6-(isoxazol-3-ylmethoxy)-1H-indol-2-yl)methyl)-1-methylcyclopropane-1-carboxamide] | 258 nM | 215 nM
23 | CC1(C(=O)NCc2cc3cc(Cl)c(OCc4ccon4)cc3[nH]2)CC1 [Compound 46, N-((5-chloro-6-(isoxazol-3-ylmethoxy)-1H-indol-2-yl)methyl)-1-methylcyclopropane-1-carboxamide] | 70 nM | 61 nM
24 | CC1(C(=O)NCc2cc3cc(F)c(OCc4ccc5ccoc5c4)cc3[nH]2)CC1 [Compound 460, N-((6-(benzofuran-6-ylmethoxy)-5-fluoro-1H-indol-2-yl)methyl)-1-methylcyclopropane-1-carboxamide] | 1360 nM | 732 nM
25 | CN(Cc1cn[nH]c1)C(=O)NCc1cc2ccc(OCc3ccon3)cc2[nH]1 [Compound 627, 1-((1H-pyrazol-4-yl)methyl)-3-((6-(isoxazol-3-ylmethoxy)-1H-indol-2-yl)methyl)-1-methylurea] | > 8730 nM | 12100 nM
26 | CN(Cc1cn[nH]c1)C(=O)NCc1cc2ccc(OCc3cscn3)cc2[nH]1 [Compound 628, 1-((1H-pyrazol-4-yl)methyl)-1-methyl-3-((6-(thiazol-4-ylmethoxy)-1H-indol-2-yl)methyl)urea] | 2670 nM | 3020 nM
